Data on 1 molecule can be found in article PMC10251479, “PROTAC-Induced Glycogen Synthase Kinase 3β Degradation as a Potential Therapeutic Strategy for Alzheimer’s Disease” (ACS Chemical Neuroscience, 2023).

One data set is described as follows: PAMPA-BBB permeation. The data set is classed as in vitro ADME. On the procedure: (§1) 11. PAMPA BBB permeation studies.
(§2) Prediction of the brain penetration was evaluated using a parallel artificial membrane permeability assay (PAMPA).[12] Ten commercial drugs, PBS at pH 7.4, EtOH, and dodecane were purchased from Sigma- Aldrich, Acros organics, Merck, and Fluka. The porcine polar brain lipid (PBL) was from Avanti Polar Lipids. The donor plate was a 96-well filtrate plate (Multiscreen® IP Sterile Plate PDVF […]
(§3) both from Millipore. Filter PDVF membrane units (diameter 30 mm, pore size 0.45 µm) from Symta were used to filter the samples. A 96-well plate UV reader (Biteck Instruments, Synergy H4 Hibrid Reader) was used for the UV measurements.
12 mg of promazine) were dissolved in 1 mL of EtOH. 100 µL of this compound stock solution were taken and 1400 µL of EtOH and 3500 µL of PBS were added to reach 30% of EtOH concentration in the experiment. These solutions were filtered. The acceptor 96-well microplate was filled with 180 µL of PBS/EtOH (70/30). The donor 96-well plate was coated with 4 µL of porcine brain lipid in dodecane (20 mg mL-1) and after 5 min, 180 µL of each compound solution was added. 1 mg of […]
of EtOH and 1.4 mL of PBS, filtered and then added to the donor 96-well plate. Then the donor plate was carefully put on the acceptor plate to form a “sandwich”, which was left undisturbed for 2 h and 45 min at 25 °C. During this time the compounds diffused from the donor plate through the brain lipid membrane into the acceptor plate. After incubation, the donor plate was removed. UV plate reader determined the concentration of compounds and commercial drugs in the acceptor and the donor plates. Every sample was analyzed at three to five wavelengths (between 200 and 500 nm), in 3 wells and in two independent runs. Results are given as the mean and the average of the two runs is reported. Quality control compounds (previously mentioned) of known BBB permeability were included in each experiment to validate the analysis set.
A general note: The PAMPA barrier holds no transporters, so it reflects passive diffusion.

Data set [1] has as its target T1, GSK-3β protein (Homo sapiens, UniProt P49841). Put plainly: GSK-3β inhibition in vitro assay (Kinase-Glo luminescent). To be noted: ATP 1 μM, GSM substrate 25 μM, 30 min at 37 °C; mean of at least two determinations in duplicate; read-out: IC50 ± SEM, GSK-3β activity. The data set is classed as biochemical. Further details: purchased Millipore (Millipore Iberica S.A.U.). The text has this:
N-(2-(2-(2-((2-(2,6-dioxopiperidin-3-yl)-1,3-dioxoisoindolin-4-yl)amino)ethoxy)ethoxy)ethyl)- 4-((2-(naphthalen-1-yl)-3,5-dioxo-1,2,4-thiadiazolidin-4-yl)methyl)benzamide (4). Synthesized […]
GSK-3β inhibition in vitro assay. Human recombinant GSK-3β, prephosphorylated polypeptide substrate and white 96-well plates were purchased from Millipore (Millipore Iberica S.A.U.). Kinase-Glo Luminescent Kinase Assay was obtained from Promega (Promega Biotech Iberica, SL).
Adenosinetriphosphate (ATP) and all other reagents were from Sigma-Aldrich. Assay buffer contained 50 mM 4-(2-hydroxyethyl)-1- piperazineethanesulfonic acid (HEPES) (pH 7.5), 1 mM ethylenediaminetetraacetic acid (EDTA), 1 mM ethylene glycol tetraacetic acid (EGTA), and 15 mM magnesium acetate. The in solution experiments for GSK-3β inhibition analysis were performed by following the method developed by Baki et al.[1] In a typical assay, 10 μL of test compound (dissolved […]
in DMSO at 1 mM concentration and diluted in advance in assay buffer to the desired concentration) and 10 μL (20 ng) of enzyme were added to each well in presence of 20 μL of assay buffer containing […]
After a 30 min incubation time at 37 °C, the enzymatic reaction was stopped by adding 40 μL of Kinase-Glo reagent. Glow-type luminescence was recorded after 10 min using a Victorx3 (PerkinElmer Waltham, MA, USA) plate […]
inhibitory activities were calculated based on maximal kinase (average positive) and luciferase activities (average negative) measured in the absence of inhibitor and in the presence of reference […]
μM), respectively. The linear regression parameters were determined and the IC 50 extrapolated by GraphPad software (version 5.0; GraphPad Software, La Jolla, CA, USA).

A further data set relates to SH-SY5Y cells. Put plainly: Neuroprotective effects against Aβ25-35 peptide in SH-SY5Y cells (MTT). The data set is classed as cell-based, human. The settings on record: 0.5 and 1 μM for 2 h, then 3 h with Aβ25–35 10 μM. On the procedure:
Data are reported as mean ± SEM of three independent experiments. […]
measured (570 nm, reference filter 690 nm) using a multilabel plate reader (VICTOR™ X3, PerkinElmer, Waltham, MA, USA).[11] Data are reported as mean ± SEM of three independent experiments. The neurotoxicity was expressed as a percentage of control cells and calculated by the formula: 100 – ((absorbance of treated neurons/absorbance of untreated neurons) × 100). […]
analysis was performed using one-way ANOVA with the Dunnett post hoc test. Differences were considered significant at p < 0.05. Analyses were performed using GraphPad PRISM software (version 5.0; GraphPad Software, La Jolla, CA, USA) on a Windows platform.
as §1, §2, §3
12 mg of promazine) were dissolved in 1 mL of EtOH. […]

Data set [2] concerns the target T1, GSK-3β protein. The data set is described as follows: GSK-3β degradation by Western blotting in SH-SY5Y cells. The data set is classed as cell-based. Further details: endogenous in cells; host or cells: SH-SY5Y. The procedure:
Determination of GSK-3β degradation by Western Blotting
At the end of incubation, cells were trypsinized and the cellular pellet was resuspended in complete lysis buffer containing leupeptin (2 µg/mL, Sigma-Aldrich), phenylmethylsulfonyl fluoride (PMSF, 100 µg/mL, Sigma-Aldrich) and a cocktail of protease/phosphatase inhibitors (100×). The protein concentration was determined using the Bradford method (Bio-Rad Laboratories Srl, Hercules, CA, USA). The protein lysates (50 µg per […]
polyacrylamide gels, Bio-Rad Laboratories SrL) and electroblotted onto 0.45 µm nitrocellulose membranes. Membranes were incubated overnight at 4 °C with primary antibody recognizing GSK-3β (1:1000, Cell Signaling Technologies Inc, Danvers, MA, USA). Membranes were then washed with TRIS-buffered saline-T (TBS + 0.05% Tween20), and then incubated with horseradish peroxidase (POD) linked anti-rabbit secondary antibody (1:2000, GE Healthcare, Chicago, IL, USA).
Immunoreactive bands were visualized by enhanced chemiluminescence (ECL, Bio-Rad Laboratories Srl). The same membranes were stripped and reprobed with anti β-actin (1:1000, Sigma-Aldrich). Data were normalized on the β-actin bands and analyzed by densitometry, using the Quantity One software (Bio-Rad Laboratories Srl).[9] […]

Setting [3] is: classified from experimental Pe.

A value given as a limit tells only on which side of the number the result lay.

T1 sequence (P49841 whole entry): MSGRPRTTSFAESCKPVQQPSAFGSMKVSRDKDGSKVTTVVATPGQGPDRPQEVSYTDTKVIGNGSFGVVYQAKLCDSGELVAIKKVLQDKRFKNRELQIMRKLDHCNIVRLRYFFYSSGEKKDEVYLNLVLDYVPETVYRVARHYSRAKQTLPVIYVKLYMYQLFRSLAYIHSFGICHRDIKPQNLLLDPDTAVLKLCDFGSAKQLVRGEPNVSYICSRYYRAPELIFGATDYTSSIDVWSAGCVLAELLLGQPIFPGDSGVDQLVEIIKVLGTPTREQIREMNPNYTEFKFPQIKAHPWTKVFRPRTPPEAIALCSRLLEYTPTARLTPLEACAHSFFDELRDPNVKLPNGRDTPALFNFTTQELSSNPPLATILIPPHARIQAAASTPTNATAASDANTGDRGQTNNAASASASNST

As for `O=C(Cn1cc(C2=C(c3ccc(Cl)cc3Cl)C(=O)NC2=O)c2ccccc21)NCCCOCCCCOCCCNc1cccc2c1C(=O)N(C1CCC(=O)NC1=O)C2=O` (stereo not shown) [Compound 1], the Papp at 2.75 h in “PAMPA-BBB permeation” (PAMPA, pH 7.4, PBS:EtOH (70:30), 2 h 45 min at 25 °C, porcine brain lipid, mean ± SD of two independent experiments, read-out: Pe (experimental data)) stood at 15.3 ± 1.12 ×10⁻⁶ cm/s. In “PAMPA-BBB permeation” (setting [3]), the “BBB permeability classification” value was “CNS±” and the “Prediction (penetration in the CNS)” value was “CNS +/- (CNS +/- (orange) for 15.78 × 10 −6 cm s−1 > Pe > 11.11 × 10 –6 cm s−1)”. For the same molecule, the IC50 (in general, the concentration at which inhibition is half-maximal) at GSK-3β protein [1] stood at 0.833 ± 0.062 µM. Besides, the “neurotoxicity induced by Aβ25–35 peptide” value in the data set with SH-SY5Y cells was “markedly reduced the neurotoxicity induced by Aβ25–35 peptide”. Further, the “total GSK-3β protein level” value on GSK-3β protein [2] (10 μM, 48 h, Western blotting) was “significantly decreased the total level of GSK-3β protein”. For the same molecule, the DC50 (as a rule, the concentration giving 50% degradation) on GSK-3β protein [2] (48 h, 0.5, 1, 5 and 10 μM, read-out: half-maximal degradation (DC50)) was determined as 6.22 µM. Besides, on GSK-3β protein [2] (48 h at 0.5, 1, 5 and 10 μM), the “GSK-3β protein level, dose dependence” value is listed as “significantly decreased GSK-3β protein level at all tested concentrations in a dose-dependent manner”. Moreover, the “total GSK-3β protein level in the presence of lactacystin” value at GSK-3β protein [2] (compound 10 μM, 24 h, lactacystin 5 μM) is “had no effect on the total GSK-3β protein level”. Besides, on GSK-3β protein [2] (dose-dependent), the “concentration from which GSK-3β is degraded” value was at least 0.5 µM.
